The text below walks through data of paper PMC9697025, “Discovery of N-Containing (-)-Borneol Esters as Respiratory Syncytial Virus Fusion Inhibitors” (Pharmaceuticals, 2022).

One data set has as its system RSV A strain A2. As to the kind of experiment: In vitro antiviral assay against RSV A strain A2 in HEp-2 cells (ELISA, virus titer). In kind it is cell-based, respiratory syncytial virus. The conditions noted are these: for IC50: RSV A strain A2 in HEp-2 cells, mean ± SD. On the technique in general: In an ELISA, binding on a coated surface is turned into a signal by an enzyme label.

A further data set relates to RSV A strain. The note with it: for effect on viral titer, time-of-addition: compound added at 1 h post infection; for inhibitory activity, time-of-addition: compound added at later time points (after 2 h post infection); for time of addition up to which antiviral activity was maintained: post infection.
Data set [1] in a line: MTT cytotoxicity assay with non-infected HEp2 cells. The conditions noted are these: human. For orientation: Tetrazolium assays rely on reduction of a dye to a coloured formazan, in cell work by metabolically active cells.
The next data set concerns RSV. As to the kind of experiment: Temperature shift assay (virus attachment at 4 °C vs post-binding). The note with it: unbound virus washed away, compound added before shift to 37 °C.
The test system of a further data set is rVSV-ΔG-MarV-GP. The note with it: CC50/IC50MarV-GP, HEK293T cells ref 12,13; cited from earlier work.
A further data set concerns rVSV-ΔG-EboV-GP. The conditions noted are these: CC50/IC50EboV-GP, HEK293T cells ref 12,13; cited from earlier work.
The test system of data set [2] is A/Puerto Rico/8/34 (H1N1) virus. Further details: method as in PMID 30108810. The note with it: CC50/IC50H1N1, A/Puerto Rico/8/34 (H1N1) ref 15; cited from earlier work.
The test system of a further data set is Vaccinia virus. The conditions noted are these: CC50/IC50VACV ref 16; cited from earlier work.
The next data set relates to pSARS-CoV-2-S. Details: method as in PMID 35746766. The conditions noted are these: CC50/IC50pSARS-CoV-2-S, pseudovirus ref 14; cited from earlier work.
In a further data set the test system is SARS-CoV-2. Further details: method as in PMID 35746766. The note with it: CC50/IC50SARS-CoV-2, against various SARS-CoV-2 virus strains ref 14; cited from earlier work.
The nature of the next data set: in vitro. The note with it: human.
The mark [3] stands for this setting: human respiratory syncytial virus, HEp-2, 50% decrease in virus replication.
[4] abbreviates: selectivity index, CC50/IC50 ratio, RSV A2 / HEp-2.

Each structure is given as a SMILES string. Like-named read-outs stand apart in the source and are kept apart here. Marks after values point to notes of the source that are not given here.

One may read the IC50 as the concentration needed to halve the response being measured. A low value points to greater potency in that assay. Turning to `CN(C)CCC(=O)O[C@@H]1C[C@@H]2CC[C@@]1(C)C2(C)C` [Compound 3b], the IC50 in the data set on RSV A strain A2 (setting [3]) stood at 8.9 ± 2.4 µM. Moreover, the SI in the data set on RSV A strain A2 (setting [4]) was determined as 111. In the data set with RSV A strain, the “effect on viral titer, time-of-addition” value is “significant reduction in viral titer”; the “inhibitory activity, time-of-addition” value was “lost their inhibitory activity”; the “time of addition up to which antiviral activity was maintained” value (“time of addition up” for short) is listed as “up to 2 h”. In data set [1], this compound gave a CC50 at 24 h of 983 ± 44.2 µM. Further, the “anti-RSV activity, temperature shift conditions (B)” value in the data set with RSV was “antiviral activity was maintained”.

Compound `CC1(C)[C@H]2CC[C@]1(C)[C@H](OC(=O)CN1CCOCC1)C2` [Compound 5a] yielded an SI with RSV A strain A2 of 83. The same compound showed an IC50 in the data set on RSV A strain A2 (setting [3]) of 5 ± 1 µM. Also, in the data set on rVSV-ΔG-MarV-GP, the SIMarV-GP result is on record as “^a SIMarV-GP = 5”. Also, the SIEboV-GP entry in the data set on rVSV-ΔG-EboV-GP was “^b SIEboV-GP = 13”. Moreover, the SIH1N1 entry in data set [2] is “^c SIH1N1 = 82”. For the same compound, in the data set on Vaccinia virus, the SIVACV entry is listed as “^d SIVACV = 56”. Also, the SIpSARS-CoV-2-S entry in the data set with pSARS-CoV-2-S was “^e SIpSARS-CoV-2-S = 5”. Also, in the data set with RSV A strain, the “effect on viral titer, time-of-addition” value is “significant reduction in viral titer”; the “inhibitory activity, time-of-addition” value is “lost their inhibitory activity”; the “time of addition up” value is “up to 2 h”. Besides, the CC50 at 24 h in [1] is 413 ± 35.1 µM. In the data set on RSV, the “anti-RSV activity, temperature shift conditions (B)” value was “antiviral activity was maintained”.

Compound `CC1(C)[C@H]2CC[C@]1(C)[C@H](OC(=O)CCN1CCOCC1)C2` [Compound 5b] returned an SI in the data set with RSV A strain A2 of 15. The IC50 in the data set with RSV A strain A2 (setting [3]) turned out to be 8.5 ± 2.8 µM. Further, the SIMarV-GP entry in the data set with rVSV-ΔG-MarV-GP was “^a SIMarV-GP = 5”. For the same compound, the SIEboV-GP entry in the data set with rVSV-ΔG-EboV-GP is “^b SIEboV-GP = 36”. For the same compound, the SIH1N1 entry in [2] is recorded as “^c SIH1N1 = 45”. The SIVACV result in the data set with Vaccinia virus was “^d SIVACV = 48”. Moreover, the SIpSARS-CoV-2-S result with pSARS-CoV-2-S is “^e SIpSARS-CoV-2-S = 18”. This compound also showed a CC50 at 24 h in data set [1] of 127 ± 15.2 µM.

Compound `CC1(C)[C@H]2CC[C@]1(C)[C@H](OC(=O)CCCN1CCOCC1)C2` [Compound 5c] gave an IC50 with RSV A strain A2 (setting [3]) of 5.8 ± 0.9 µM. In addition, in the data set on RSV A strain A2 (setting [4]), the SI is 53. In addition, the SIVACV entry with Vaccinia virus is given as “^d SIVACV = 23”. Also, the CC50 at 24 h in [1] amounted to 307 ± 24.1 µM.

`CC1(C)[C@H]2CC[C@]1(C)[C@H](OC(=O)CCN1CCCCC1)C2` [Compound 6b] yielded an IC50 with RSV A strain A2 (setting [3]) of 14.6 ± 1.2 µM. Besides, in the data set with RSV A strain A2 (setting [4]), the SI is 22. For the same compound, in the data set on RSV A strain, the “effect on viral titer, time-of-addition” value is “significant reduction in viral titer”; the “inhibitory activity, time-of-addition” value is “lost their inhibitory activity”; the “time of addition up” value was “up to 2 h”. The compound further came in with a CC50 at 24 h in data set [1] of 326 ± 45.6 µM. Moreover, the “anti-RSV activity, temperature shift conditions (B)” value with RSV is listed as “antiviral activity was maintained”.

A word on the melting point: it is the temperature, or range, at which the solid turns liquid. For `CC1(C)[C@H]2CC[C@]1(C)[C@H](OC(=O)CCN1CCN(c3ccccc3)CC1)C2` [Compound 14b, (1S,2R,4S)-1,7,7-Trimethylbicyclo [2.2.1]heptan-2-yl 3-(4-phenylpiperazin-1-yl)propanoate], the melting point was found to be 83 °C. Moreover, in the data set on RSV A strain A2 (setting [3]), the half-maximal inhibitory concentration (IC50) was found to be 8.1 ± 0.9 µM. For the same compound, in the data set with RSV A strain A2 (setting [4]), the SI turned out to be 45. In data set [1], the CC50 at 24 h came out at 366 ± 25.8 µM.

Regarding `CCCCN(CCCC)CC(=O)OC1CC2CCC1(C)C2(C)C` (stereo not drawn) [IV (n=1)], the SIMarV-GP entry in the data set with rVSV-ΔG-MarV-GP is “^a SIMarV-GP = 6”. Further, the SIH1N1 result in data set [2] is reported as “^c SIH1N1 = 16”. For the same compound, in the data set on pSARS-CoV-2-S, the SIpSARS-CoV-2-S result is on record as “^e SIpSARS-CoV-2-S = 10”. Also, in the data set with SARS-CoV-2, the SISARS-CoV-2 result is listed as “SISARS-CoV-2 = 11–40 *”.

Take `CCCCN(CCCC)CCC(=O)OC1CC2CCC1(C)C2(C)C` (stereo not drawn) [IV (n=2)]: the SIMarV-GP entry in the data set on rVSV-ΔG-MarV-GP is given as “^a SIMarV-GP = 15”. In addition, in data set [2], the SIH1N1 result is given as “^c SIH1N1 = 12”. Besides, the SIpSARS-CoV-2-S result in the data set with pSARS-CoV-2-S is listed as “^e SIpSARS-CoV-2-S = 29”. The SISARS-CoV-2 result with SARS-CoV-2 is recorded as “SISARS-CoV-2 = 6–102 *”.

For the compound `NC(=O)c1ncn([C@@H]2O[C@H](CO)[C@@H](O)[C@H]2O)n1` [Ribavirin, reference compound], the SI in the data set with RSV A strain A2 came out at 50. The IC50 with RSV A strain A2 (50% decrease in virus replication) stood at 80.1 ± 13.5 µM; with RSV A strain A2 (setting [3]), 80 µM. For the same compound, the CC50 at 24 h in “in vitro” was below 4000 µM.
